From patent US20110104155A1, “DRUG DELIVERY TO THE ANTERIOR AND POSTERIOR SEGMENTS OF THE EYE USING EYE DROPS” (Raouf Rekik, priority 2008, published 2011)

Assays:
[1] = in vivo
Description: (§1) The experimental technique was based on ocular fundus fluorescence: Five patients were used in this study. […] Then every hour, the conjunctivae of the two eyes were exposed every hour to a 10% fluorescein solution. 8 hours later the fundus fluorescence in the two eyes was measured and analysed.

[2] = system: macular oedema secondary to CRVO; settings: injected into the eye (intravitreal); cited from earlier work
[3] = ocular fundus fluorescence after topical drug carrier plus fluorescein eye drops; settings: exposure of the conjunctival fornices to a 10% fluorescein solution; 7 hours later
Description: as §1

CC(C)(C)NC[C@H](O)COc1nsnc1N1CCOCC1 [timolol]
anterior segment fluorescence compared with the eye receiving only fluorescein [1]: the same | ocular fundus fluorescence compared with the eye receiving only fluorescein [1]: stronger

bevacizumab [Avastin®]
effect on macular oedema secondary to CRVO [2]: improved

C[C@]12C=CC(=O)C=C1CC[C@H]1[C@@H]3C[C@@H](O)[C@](O)(C(=O)CO)[C@@]3(C)C[C@H](O)[C@@]12F [triancinolone (Aristocert®), triancinolone]
effect on macular oedema secondary to CRVO [2]: efficacy

CNC[C@H](O)c1cccc(O)c1 [neosynephrine]
ocular fundus fluorescence compared with the eye receiving only fluorescein [1]: stronger

Brc1c(NC2=NCCN2)ccc2nccnc12 [brimonidine]
anterior segment fluorescence compared with the eye receiving only fluorescein [1]: stronger | ocular fundus fluorescence compared with the eye receiving only fluorescein [1]: stronger

O=C1OC2(c3ccc(O)cc3Oc3cc(O)ccc32)c2ccccc21 [fluorescein]
maximum vitreous concentration [3]: 1.5e-12 g/mL
